# Measured values published in patent publication US11633421B2, “Use of NAD precursors for improving maternal health and/or offspring health” (UNIVERSITY OF IOWA RESEARCH FOUNDATION, priority 2016, dated 2023).
# Tests used:
# [1] = Maternal weight gain, NR chloride in chow from 12 weeks before mating through weaning; type: in vivo; settings: female mice, NC+NR vs NC
# Description: Mice are a widely used model of human metabolism because they are capable of recapitulating many aspects of human health. […] Therefore, mice were used in a series of in vivo experiments to evaluate whether maternally supplemented NR has the ability to improve maternal and/or neonatal health and development. Specifically, it was asked whether addition of NR chloride (3 g/kg of chow) to the diet of female mice would alter their health during and after pregnancy and whether this administration would produce any beneficial effects on the pups.
# (§1) Female C57BL/6N mice were raised in 12 hour light:dark cycles on Teklad 2920X chow (NC). For 12 weeks prior to mating with a single C57BL/6N male, females were on either NC (n=4) or NC+NR (n=4). Females were maintained on the same diet through gestation and weaning, which was at 21 days after birth.
# [2] = Milk production, oxytocin-induced milk collection (Example 1); type: in vivo, mice; settings: collected volume per mother after oxytocin, days 0, 7, 14 and 21 after partum; NC+NR vs NC
# Method: as §1
# To determine the production of milk, we separated mothers were separated from pups for several hours and provided an injection of oxytocin on days 0, 7, 14 and 21 after partum. Milk was carefully collected by pipetting and the collected volume per mother was plotted. The galactogogue activity of NR was striking and entirely unexpected.
# [3] = Offspring fasting glucose (Example 1); type: in vivo, mice
# Method: Female C57BL/6N mice were raised in 12 hour light:dark cycles on Teklad 2920X chow (NC). For 12 weeks prior to mating with a single C57BL/6N male, females were on either NC (n=4) or NC+NR (n=4). Females were maintained on the same diet through gestation and weaning, which was at 21 days after birth. […] The mild hypoglycemia of mice on standard chow was not expected and the improvement in glycemic control by virtue of supplementing mothers was unexpected.
# [4] = Transmission of heavy-atom labeled oral NR into milk; type: in vivo, mice; settings: oral NR labeled with heavy atoms in nicotinamide and ribose moieties, gavage to lactating mothers
# Method: FIGS. 9A-B. Orally administered NR is not directly transmitted via milk.
# A series of in vivo murine experiments were performed to evaluate the effects of nicotinamide riboside on milk production. […] As shown in FIGS. 8A-C, the concentration of protein, carbohydrate and fat in the milk of NR-supplemented mothers was normal. Because there is approximately 2-fold more milk produced by NR-supplemented mothers, NR-supplemented mothers transmit more calories to their offspring, which thereby assists maternal weight loss and neonatal development. In FIG. 9A, the concentration of NAD precursor vitamins in the milk from control mothers and NR-supplemented mothers was determined. […] Oral NR was labeled with heavy atoms in the nicotinamide and ribose moieties of NR and this was provided to lactating mothers by gavage.
# [5] = system: brain derived neurotrophic factor (BDNF); experiment: BDNF in milk; type: in vivo, mice; settings: NR-supplemented mothers
# Method: FIG. 10. NR supplemented mothers produce milk with higher brain-derived neurotrophic factor. Milk from NC and NR mothers was tested. […] Based on the advanced brain and neurobehavioral development that was observed, it was investigated whether NR-supplemented mothers produced more BDNF in their milk.
# [6] = system: NAD biosynthetic genes in the liver; experiment: Hepatic NAD biosynthetic gene expression and NAD metabolites; type: in vivo; settings: lactating mice with vs without NR
# Description: Lactation boosts NAD biosynthetic genes (FIG. 11A) and NAD levels (FIG. 11B) in the liver. […]. Lactation seems to depress levels of NR (FIG. 11C) and Nam (FIG. 11D) in the liver.
# [7] = system: prolactin; experiment: Prolactin levels in plasma from dam; type: in vivo, mice; settings: plasma from dam on NC or NR chow
# Description: (§2) FIGS. 13A-D. NR boosts prolactin circulation and mammary biosynthetic pathways for protein, fat and carbohydrate. FIG. 13A. Prolactin levels in plasma from dam on NC or NR chow. FIG. 13B. mTOR pathway is activated in NR-supplemented mammary tissue. FIG. 13C. Genes involved in lipid biosynthesis are activated in NR-supplemented mammary tissue. FIG. 13D. Genes involved in lactose synthesis pathway are activated in NR-supplemented mammary tissue. […] In addition, the size of the mammary tissue itself is greater in NR-supplemented mothers than in non-supplemented mothers (FIG. 14A).
# [8] = system: mTOR pathway; experiment: phospho-mTOR in mammary tissue; type: in vivo, mice; settings: NR-supplemented mothers
# Description: as §2
# [9] = Pup growth and weanling body composition (post-partum maternal NR); type: in vivo, mice
# Method: FIG. 15. Maternal NR increases pup growth early in the neonatal period. Neonatal pups body weight from Day 0 to Day 14 (n=5 litter per group). FIGS. 16A-D. 21 day old pups of NR-supplemented mothers are bigger. Males and females were analyzed separately. The order of the bars from left to right are: males of normal chow (NC) mothers (white with light grey outline), followed by males of NR-supplemented mothers (filled light grey), followed by females of NC mothers (white with dark grey outline), followed by females of NR-supplemented mothers (filled dark grey). […] As shown in FIG. 16A-C, 21 day old weanlings of NR-supplemented mothers are larger in overall mass, fat mass and lean mass.
# [10] = Dark/light chamber test of offspring; type: in vivo, mice
# Description: FIGS. 20A-C. […] The order of the bars from left to right are: males of normal chow (NC) mothers (white with light grey outline), followed by males of NR-supplemented mothers (filled light grey), followed by females of NC mothers (white with dark grey outline), followed by females of NR-supplemented mothers (filled dark grey). It was considered interesting that males and female adults of NR-supplemented mothers maintain distinct physical advantages into adulthood on the basis of the mother's micronutrition. […] This could be interpreted either as a simple increase in activity and/or a less anxious state of being.
# [11] = Balance beam test of offspring; type: in vivo, mice; settings: 85 days old male and female offspring
# Description: FIGS. 22A-C. 64 days after their mother's intervention, 85-day-old adults of NR-supplemented mothers have better performance on a balance beam. They cross a beam balance faster (untrained); they slip fewer times; and they almost never grip the beam with their tail. […] The order of the bars from left to right are: males of normal chow (NC) mothers (white with light grey outline), followed by males of NR-supplemented mothers (filled light grey), followed by females of NC mothers (white with dark grey outline), followed by females of NR-supplemented mothers (filled dark grey). The improved physical functions of adult offspring of NR-supplemented mothers were not confined to advantages in making less anxious choices about where to move in space, light and dark. At 85 days old, when mice were again 64 days past their mother's intervention—again all mice were on NC show for 64 days—their untrained ability to cross a balance beam was tested. […] This was not anticipated.
# [12] = 21 day old weanlings of NR-supplemented mothers
smiles,measurement,setting,value
"NC(=O)c1ccc[n+]([C@@H]2O[C@H](CO)[C@@H](O)[C@H]2O)c1 [NR, nicotinamide riboside]",maternal body fat at the time of weaning,[1],tended to have lower body fat
same,weight gain from the day of mating to the day of weaning,[1]; NR chloride 3 g/kg of chow,protected from this weight gain
same,increase in milk production,[2],2-3 x
same,"glucose after an overnight fast, mice raised by NR-supplemented mothers",[3],better at maintaining glucose
same,labeled species released into milk,[4],only single labeled nicotinamide and no double-labeled NR
same,concentration of BDNF in the milk vs non-supplemented mothers,[5],2 fold
same,NAD biosynthetic genes and NAD levels in the liver,[6],does not superinduce
same,hepatic NAD biosynthetic gene expression,[6],did not further increase
same,levels of NR and Nam in the liver,[6],depresses the accumulation of these metabolites in the liver even more
same,circulating prolactin,[7],very high levels
same,phosph-mTOR in mammary,[8],higher level
same,brain weight of weanlings,[9]; 21 day old females,tend to have larger brain weight
same,fat mass of weanlings,[9]; [12],larger
same,lean mass of weanlings,[9]; [12],larger
same,overall mass of weanlings,[9]; [12],larger
same,neonatal size (pup body weight),[9]; particularly at day 7 and 9,boosts neonatal size
same,time in the light,[10]; 75 day-old female offspring,spend more time in the light
same,time in the light chamber of a dark/light chamber,"[10]; 75 days of age, offspring of NR-supplemented mothers",more willing to spend time in the light chamber
same,slips on balance beam,[11],fewer slips
same,time to cross a balance beam (untrained),[11],cross faster
same,use of tail to grip the balance beam,[11],virtually no use of their tails
